The results in this text go back to ChEMBL document CHEMBL1201862, “PubChem BioAssay data set” (2004).

Each structure is given as a SMILES string.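 Exposure lasted 48 hours, with cells grown in 96-well plates and compounds tested at five concentrations. GI50 = concentration required for 50% inhibition of growth.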 The source made the active and inactive calls. Rule as the data show it: active = GI50 up to about 1.1 µM and inactive = higher.

The test system of this test is HCC 2998. The experiment in a line: growth of human tumour cells (NCI), 48 h.

`c1ccc(-c2ccnc3c2ccc2c(-c4ccccc4)ccnc23)cc1`: the GI50 was 3.53 µM (inactive).
